The record followed here is patent publication US20190134145A1, “METHOD FOR TREATING COGNITIVE DYSFUNCTION” (ARIZONA BOARD OF REGENTS ON BEHALF OF THE UNIVERSITY OF …, priority 2013, published 2019).

For one assay, the system named is Paraventricular neurons. The assay can be described thus: Reactive oxygen species production (DHE/ethidium fluorescence) in neurons challenged with aldosterone. Conditions: mean±SE. It counts as cell-based, SD rats. Here is the method: Paraventricular neurons were isolated from 22 day old female SD rats, dissociated and cultured on round coverslips and maintained in HBSS media for at least 48 hours prior to visualization by confocal microscopy. All cells were pre-incubated in 10 nM ALDO for 48 hours and then 1.0 μM Ang-(1-7) or 1.0 μM Ang-(1-7)+10.0 μM […] for 2 hours prior to testing with acute 1.0 μM Aldo. To measure ROS, changes in the ethidium fluorescence were measured which is directly proportional to the oxidation of dihydroethidium (DHE) by ROS. The cells were loaded with DHE (20 μM) added to the cell culture media for 1 h and then placed in a chamber for microscopic visualization of fluorescence. One-way ANOVAs for the experimental groups response to acute Aldo was determined. After establishing a significant ANOVA, post-hoc analyses were performed with Tukey multiple comparison tests between pairs of mean change scores. All data are expressed as means±SE. Statistical significance was set at P<0.05. Perfusion with 1.0 μM ALDO increased ROS (D=113.4+28%) in the PVN neurons. […] Pre-incubation in Ang-(1-7)+[…], restored the ALDO increase in ROS (Delta=105.9+9%). Change in ROS production was standardized relative to control state prior to ALDO treatment during ACSF incubation. ANOVA followed by Tukey's post hoc test was used for statistical comparisons between control and ALDO treatment. […]

The subject of assay [1] is CHF mice. The assay can be described thus: Spontaneous (novel) object recognition (SOR) test in mice with congestive heart failure after myocardial infarction. Type of assay: in vivo. Particulars: CHF mice (n=6), 50 mcg/kg/hr subcutaneously from 8 weeks post MI, after 3 weeks of treatment; controls +0.25±0.2, CHF+saline −0.21±0.1. As to the method:
Mice were 12 weeks post MI or sham surgery. Six mice were MI+Ang(1-7); three mice were MI+saline; and four mice were Sham+Ang (1-7). Alzet pumps with either Ang(1-7) or saline were implanted sq 3 weeks prior to NOR test. Novel object recognition test was performed 3 weeks post pump implant. Data shown are 1st 2 min of “test phase” DRatio=(t novel−t familiar)/(t novel+t familiar). A positive score indicates more time spent with the novel object, a negative score indicates more time spent with the familiar object, and a zero score indicates a null preference. *=p<0.05, #=p<0.05. ANOVA+posthoc Turkey test.
Myocardial infarction and subsequent CHF was induced by ligation of the left coronary artery. By week 4 and week 8 post MI, CHF mice (n=15) had approximately 50 and 70% decline in ejection fraction as measured by echocardiography. For the object recognition SOR test at 8 weeks post MI, discrimination ratios were calculated from the time spent exploring the novel versus familiar object during the test phase. […]
In addition, the invention provides a preclinical animal model of cardiovascular disease and congestive heart failure induced cognitive dysfunction. […] By week 4 and week 8 post MI, cardiovascular disease and congestive heart failure mice (n=15) had approximately 50 and 70% decline in ejection fraction as measured by echocardiography. […]

The test system of assay [2] is CHF mice. Nature of the assay: Morris water maze task (spatial memory) in mice with congestive heart failure after myocardial infarction. It counts as in vivo. Particulars: 50 mcg/kg/hr subcutaneously for 4 weeks from 8 weeks post MI, first day of testing. As to the method:
Prior to MI, the controls and CHF mice groups performed similarly on the Morris water task. Myocardial infarction and subsequent CHF was induced by ligation of the left coronary artery. By week 4 and week 8 post MI, CHF mice had approximately 50 and 70% decline in ejection fraction as measured by echocardiography. […] Animals were tested over 4 days with 6 spatial trials per day.
(§1) In addition, the invention provides a preclinical animal model of cardiovascular disease and congestive heart failure induced cognitive dysfunction. A total of 26, male C57B1/6J mice were randomly assigned to the control group or cardiovascular disease and congestive heart failure group. Myocardial infarction was induced by ligation of the left coronary artery. By week 4 and week 8 post MI, cardiovascular disease and congestive heart failure mice (n=15) had approximately 50 and 70% decline in ejection fraction as measured by echocardiography. Mice were tested for changes in spatial learning memory via the Morris water task and object recognition via the standard spontaneous object recognition (SOR) task at 4 and 8 weeks post MI. At 8 weeks post MI, a subgroup of cardiovascular disease and congestive heart failure mice (n=6) and the control mice (n=4) were given 50 mcg/kg/hr Angiotensin (1-7) or saline subcutaneously for 4 weeks and then cognitive function was retested. […]

For assay [3], the system named is CHF mice. Nature of the assay: Ejection fraction by echocardiography in CHF mice. It counts as in vivo. Conditions: systemic treatment 50 mcg/kg/hr subcutaneously. As to the method:
Myocardial infarction and subsequent CHF was induced by ligation of the left coronary artery. By week 4 and week 8 post MI, CHF mice (n=15) had approximately 50 and 70% decline in ejection fraction as measured by echocardiography. For the object recognition SOR test at 8 weeks post MI, discrimination ratios were calculated from the time spent exploring the novel versus familiar object during the test phase. […] At 8 weeks post MI, a subgroup of CHF mice (n=6) and controls (n=4) were given 50 mcg/kg/hr Angiotensin (1-7) or saline subcutaneously for 4 weeks and then cognitive function was retested.
as §1, with “MI.” for “MI. At 8 weeks post MI, a subgroup of cardiovascular disease and congestive heart failure mice (n=6) and the control mice (n=4) were given 50 mcg/kg/hr Angiotensin (1-7) or saline subcutaneously for 4 weeks and then cognitive function was retested.”

On to `C[C@]12CCC(=O)C=C1CC[C@@H]1[C@@H]2[C@@H](O)C[C@]2(C=O)[C@@H](C(=O)CO)CC[C@@H]12` [ALDO, Aldosterone, reference compound], for which the “Change in ROS (D) relative to control state prior to ALDO treatment” value in the assay on Paraventricular neurons (PVN neurons, perfusion with 1.0 μM ALDO, no Ang-(1-7) pre-incubation) is 113.4+28%.
Consider “angiotensin-(1-7) (DRVYIHP; Angiotensin 1-7; UniProt P01019 25-31, looked up) [Ang-(1-7), endogenous peptide derived from Angiotensin II via ACE2]”, for which the SOR discrimination ratio result with CHF mice [1] is given as “+0.43±0.1”. For the same molecule, in the assay on CHF mice [2], the “Performance in Morris water maze task after treatment” value is “significant improvement on object recognition memory on the first day of testing”. In addition, the “Change in ROS (D) on ALDO, relative to control state prior to ALDO treatment” value in the assay with Paraventricular neurons (PVN neurons pre-incubated 2 hours in 1.0 μM Ang-(1-7), then acute 1.0 μM ALDO) is 6.4+27%. For the same molecule, in the assay with CHF mice [3], the Ejection fraction entry was “not significantly impacted”.
